Data taken from patent US20210386761A1, “COMPOSITION FOR PREVENTING OR TREATING INFLAMMATORY BOWEL DISEASE, CONTAINING, AS ACTIVE INGREDIENT, TAURODEOXYCHOLIC ACID OR PHARMACEUTICALLY ACCEPTABLE SALT THEREOF” (SHAPERON INC., priority 2019, published 2021).

What was measured:
[1] = test system: inflammatory bowel disease-induced mouse model (DSS); test: Clinical symptom analysis (body weight, DAI, survival) in 2% DSS inflammatory bowel disease-induced mouse model; format: in vivo
Description: An inflammatory bowel disease-induced mouse model using dextran sodium sulfate (DSS) was prepared by the following method.
Specifically, male C57BL/6 mice (7 to 12 weeks old, body weight of 18 to 30 g) were adapted for one week and used in the experiment. Animal rearing was carried out under the conditions of a temperature of 25° C. and a day and night cycle (12 hours night/12 hours daytime), and feed and drinking water were freely fed. All the animals were managed according to the guidelines for use of experimental animals of Seoul National University IACUC (IACUC: SNU-151223-4-1). On the day of administration of DSS (MP Biomedicals, Santa Ana, Calif., USA) (Day 0), mice were weighed and marked on the tail.
Next, male C57BL/6 mice were fed with a 2% DSS solution together with drinking water from Day 0 of the experiment to induce inflammatory bowel disease. DPBS or 10, 5, 2.5, or 1 mg/kg sodium taurodeoxycholic acid (TDCA) was administered in 0.1 ml by oral gavage one time a day from Day 1 of the experiment. Alternatively, 0.1 ml of 5 mg/kg TDCA was administered one time a day by oral gavage 2 days before DSS administration.
The 2% DSS solution was used after being prepared by dissolving DSS powder in sterilized distilled water and filtering the solution. The TDCA was dissolved in DPBS (Dulbecco's phosphate-buffered saline) and used.
(§1) The disease activity indexes (DAI) including body weight, body weight loss, stool consistency, and bloody stool were measured daily. DAI was scored according to the following [Table 1].
(§2) Specifically, female C57BL/6 mice were fed with a 2% DSS solution or DPBS together with drinking water for 10 days from Day 0 of the experiment by the same method as that described in <Example 1>, DPBS or 5 mg/kg TDCA was administered to the mice by oral gavage one time a day for 11 days from Day 1 of the experiment, and the body weight and DAI were measured daily. As a control, mice freely fed with drinking water were used.
as §2, with “or 10, 5, 2.5, or 1” for “or 5”
as §2, with “solution” for “solution or DPBS”, “7” for “10”, “gavage” for “gavage one time a day for 11 days”, “DSS administration or 2 days before DSS administration,” for “the experiment,”
as §2, with “Specifically, C57BL/6-Gpbar1^tm1(KOMP)Vlcg mice (TGR5 KO, KOMP Repository, The Knockout Mouse Project, University of California, Davis, Calif.) were used as TGR5 knockout (TGR5^−/−) female C57BL/6 mice. The TGR5^−/− female C57BL/6 mice or TGR5 normal (WT)” for “Specifically,”, “1>.” for “1>,”

[2] = test system: inflammasome activity of bone marrow-derived macrophages; test: Inhibition of IL-1β secretion of bone marrow-derived macrophages (LPS then ATP or BzATP); format: cell-based; settings: Mus musculus, Macrophage, LPS 10 ng/ml 3 h, TDCA 1 h, ATP 0.5 mM or BzATP 0.3 mM 1 h, FIGS. 10A and 10B
Description: Bone marrow was collected from a DPBS-administered mouse which had been subjected to an experiment by the same method as that described in <Example 2>, induced to differentiate into macrophages, then pretreated with LPS (10 ng/ml) for 3 hours so as to be 4×10^4 cells in a 96-well plate, treated with TDCA at various concentrations for 1 hour, then treated with ATP (0.5 mM) or BzATP (0.3 mM) for an additional 1 hour, and cultured, and the amount of IL-1β in the cell culture was measured and analyzed using an ELISA kit (R & D systems, USA) according to the manufacturer's procedure.

[3] = test system: TGR5 knockout (TGR5−/−) inflammatory bowel disease-induced mouse model; test: Clinical symptom analysis in DSS-induced TGR5 knock-out (TGR5−/−) mouse model; format: in vivo; settings: TGR5−/− mice, 2% DSS 10 days
Description: as §1
as §2, with “Specifically, C57BL/6-Gpbar1^tm1(KOMP)Vlcg mice (TGR5 KO, KOMP Repository, The Knockout Mouse Project, University of California, Davis, Calif.) were used as TGR5 knockout (TGR5^−/−) female C57BL/6 mice. The TGR5^−/− female C57BL/6 mice or TGR5 normal (WT)” for “Specifically,”, “1>.” for “1>,”

C[C@H](CCC(=O)NCCS(=O)(=O)O)[C@H]1CC[C@H]2[C@@H]3CC[C@@H]4C[C@H](O)CC[C@]4(C)[C@H]3C[C@H](O)[C@]12C [TDCA, sodium taurodeoxycholic acid]
initial body weight lost on Day 10 ([1]; 2% DSS 10 days, 5 mg/kg TDCA oral gavage one time a day for 11 days from Day 1, DSS+DPBS group about 15%, FIG. 1A): about 5% | survival rate ([1]; 2% DSS 10 days, 5 mg/kg TDCA oral gavage one time a day, DSS+DPBS group 60%, FIG. 1C): 100% | start of body weight loss later than the DSS+DPBS group ([1]; 2% DSS 10 days, 5 mg/kg TDCA oral gavage one time a day, FIG. 1A): about 2 days | DAI (disease activity index) change ([1]; 2% DSS 10 days, 5 mg/kg TDCA oral gavage one time a day, FIG. 1B): lower than that in the DSS+DPBS group | DAI change ([1]; 2% DSS 10 days, 10, 5, 2.5, or 1 mg/kg TDCA, FIG. 4B): lower than that in the DSS+DPBS group | degree of alleviation of body weight loss ([1]; 2% DSS 10 days, TDCA at 5 and 10 mg/kg, among 10, 5, 2.5, 1 mg/kg, FIG. 4A): superior | DAI change ([1]; 2% DSS 10 days, TDCA at 10, 5, and 2.5 mg/kg, among 10, 5, 2.5, 1 mg/kg, FIG. 4B): DAI was lower | DAI change ([1]; DSS+TDCA group: 5 mg/kg TDCA from Day 1 of DSS administration, 2% DSS 7 days, FIG. 6B): similarly decreased | DAI change ([1]; DSS+preTDCA group: 5 mg/kg TDCA from 2 days before DSS administration, 2% DSS 7 days, FIG. 6B): similarly decreased | initial body weight lost on Day 10 ([1]; TGR5 normal (WT) mice, 2% DSS 10 days, 5 mg/kg TDCA oral gavage one time a day, FIG. 8A): about 5% | DAI change ([1]; TGR5 normal (WT) mice, 2% DSS 10 days, 5 mg/kg TDCA, FIG. 8B): lower than those in the other groups | survival rate ([1]; TGR5 normal (WT) mice, 2% DSS 10 days, 5 mg/kg TDCA, FIG. 8C): 100% | IC50 [2]: 60 to 90 nM | initial body weight lost on Day 10 ([3]; 5 mg/kg TDCA oral gavage one time a day, FIG. 8A): about 27% | DAI change ([3]; 5 mg/kg TDCA, FIG. 8B): DAI was high | survival rate ([3]; 5 mg/kg TDCA, FIG. 8C): 60%
